Results published in ChEMBL document CHEMBL2069270, “Exploration of ring size in a series of cyclic vicinal diamines with σ₁ receptor affinity” (Bioorg Med Chem Lett, 2012).

Key:
[1] = molecular target: Sigma non-opioid intracellular receptor 1 (Cavia porcellus, UniProt Q60492); test: Displacement of [3H](+)-pentazocine from sigma1 receptor in guinea pig brain homogenate; type: tissue-based
[2] = Displacement of [3H]DTG from sigma2 receptor in rat liver homogenate in presence of (+)-pentazocine; type: tissue-based
[3] = Selectivity ratio of Ki for rat sigma2 receptor to Ki for guinea pig sigma1 receptor
[4] = Binding affinity to sigma2 receptor; set-up: species or system Homo sapiens
[5] = Binding affinity to sigma1 receptor
[6] = Binding affinity to sigma2 receptor in guinea pig brain homogenate; type: tissue-based, Cavia porcellus
[7] = molecular target: Sigma non-opioid intracellular receptor 1 (Rattus norvegicus, UniProt Q9R0C9); test: biochemical
Sigma non-opioid intracellular receptor 1 (Rattus norvegicus, UniProt Q9R0C9), sequence (Q9R0C9 whole entry): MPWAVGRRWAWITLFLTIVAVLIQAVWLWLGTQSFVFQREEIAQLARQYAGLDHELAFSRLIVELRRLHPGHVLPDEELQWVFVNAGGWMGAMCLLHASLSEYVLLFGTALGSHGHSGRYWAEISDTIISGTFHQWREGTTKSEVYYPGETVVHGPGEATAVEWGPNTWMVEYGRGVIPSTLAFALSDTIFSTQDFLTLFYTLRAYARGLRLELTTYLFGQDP
Description: Displacement of [3H](+)-pentazocine from sigma1 receptor in rat brain homogenate after 120 mins

Sigma non-opioid intracellular receptor 1 (Cavia porcellus, UniProt Q60492), sequence (Q60492 whole entry): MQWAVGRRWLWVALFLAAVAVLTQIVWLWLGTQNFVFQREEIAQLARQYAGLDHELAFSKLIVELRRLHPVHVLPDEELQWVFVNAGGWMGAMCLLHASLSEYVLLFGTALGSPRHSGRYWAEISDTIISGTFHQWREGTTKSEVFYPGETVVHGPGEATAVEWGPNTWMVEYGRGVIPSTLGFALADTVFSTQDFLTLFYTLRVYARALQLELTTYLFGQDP

Compound | Ki [1] | Ki [2] | Ratio Ki [3] | Ki [4] | Ki [5] | Ki [6] | Ki [7]
COc1ccc(CN2CCN(Cc3cc4ccccc4o3)CC2)cc1 | 0.18 nM | 167 nM | 929 | – | – | – | –
CCOc1ccc(CN2CCCN(Cc3cc4ccccc4o3)CC2)cc1 | 0.194 nM | 292 nM | 1500 | – | – | – | –
COc1cccc(CCN2CCN(CCCc3ccccc3)CC2)c1 | – | – | – | 10.2 nM | 1.4 nM | – | –
FCCCOc1ccc(CN2CCN(Cc3cc4ccccc4o3)CC2)cc1 | 1.61 nM | 1360 nM | 842 | – | – | – | –
COc1ccc(CN2CCN(Cc3cc4ccccc4o3)C2)cc1 | 43 nM | 2500 nM | 58 | – | – | – | –
CCOc1ccc(CN2CCN(Cc3cc4ccccc4o3)CC2)cc1 | 0.18 nM | 1120 nM | 6190 | – | – | – | –
COc1ccc(CN2CCCN(Cc3cc4ccccc4o3)CC2)cc1 | 0.54 nM | 119 nM | 220 | – | – | – | –
FCCCOc1ccc(CN2CCCN(Cc3cc4ccccc4o3)CC2)cc1 | 0.12 nM | 1380 nM | 11500 | – | – | – | –
c1ccc(CN2CCN(Cc3ccccc3)CC2)cc1 | – | – | – | 1270 nM | – | – | –
COc1ccc(CCN2CCN(CCCc3ccccc3)CC2)cc1OC [[11C]SA4503] | – | – | – | – | – | 63 nM | –
FCCCOc1ccc(CN2CCN(Cc3cc4ccccc4o3)C2)cc1 | 20.8 nM | 3640 nM | 175 | – | – | – | –
S=c1sc2ccccc2n1CCCCN1CCN(C2CCCCC2)CC1 | – | – | – | – | – | – | 1.3 nM
FCCOc1ccc(CN2CCCN(Cc3cc4ccccc4o3)CC2)cc1 | 0.1 nM | 88.1 nM | 881 | – | – | – | –
COc1cccc2c1CCCC2CCCN1CCN(Cc2ccccc2)CC1 (stereo unspecified) | – | – | – | 1870 nM | – | – | –
CCCOc1ccc(CN2CCN(Cc3cc4ccccc4o3)C2)cc1 | 53.5 nM | 6470 nM | 121 | – | – | – | –
CCOc1ccc(CN2CCN(Cc3cc4ccccc4o3)C2)cc1 | 19.3 nM | 2380 nM | 123 | – | – | – | –
CCCOc1ccc(CN2CCCN(Cc3cc4ccccc4o3)CC2)cc1 | 0.152 nM | 700 nM | 4600 | – | – | – | –
CCCOc1ccc(CN2CCN(Cc3cc4ccccc4o3)CC2)cc1 | 10.3 nM | 1470 nM | 143 | – | – | – | –
FCCOc1ccc(CN2CCN(Cc3cc4ccccc4o3)C2)cc1 | 6.45 nM | 1530 nM | 237 | – | – | – | –
FCCOc1ccc(CN2CCN(Cc3cc4ccccc4o3)CC2)cc1 | 0.05 nM | 807 nM | 16100 | – | – | – | –
